The values that follow come from patent US20180203025A1, “HDL THERAPY MARKERS” (Cerenis Therapeutics Holding SA, priority 2014, published 2018).

In assay [1] the test system is SR-BI mRNA in mouse macrophages (J774). The assay is described as follows: SR-BI gene expression (real-time PCR) in J774 macrophages. Type of assay: cell-based. As for the experimental part:
J774 were seeded on 6 well plates (300,000 cells/well) and loaded with oxidized-LDL without the use of 3H-cholesterol. […] Gene expression was assayed using the protocols described in Sections 8.3.2 (RNA extraction); 8.3.4 (reverse transcription), and 8.3.5 (qPCR). SR-BI gene expression was determined with Taqman probe Mm00450234.m1 according to the manufacturer's protocol. The reference gene used is HPRT1 (Taqman probe: Mm00446968.m1).
J774 were seeded on 6 well plates (300,000 cells/well) and loaded with oxidized-LDL. […] Gene expression was assayed using the protocols described in Sections 8.3.2 (RNA extraction); 8.3.4 (reverse transcription), and 8.3.5 (qPCR). SR-BI gene (Taqman probe Mm00450234.m1), ABCG1 (Taqman probe Mm00437390.m1), SREBP1 (Taqman probe Mm01138344.m1) and ABCA1 (Taqman probe Mm00442646.m1) expression were determined according to the manufacturer's protocol. […]
J774 were seeded on 6 well plates (600,000 cells/well) in DMEM 10% FCS. […] ABCG1 (Taqman probe Mm00437390.m1), ABCA1 (Taqman probe Mm00442646.m1) and SR-BI (Taqman probe Mm00450234.m1) expression were determined according to the manufacturer's protocol. […]
J774 were seeded on 6 well plates (300,000 cells/well) in DMEM 2.5% FCS. […] ABCA1 (Taqman probe Mm00442646.m1), ABCG1 (Taqman probe Mm00437390.m1), and SR-BI (Taqman probe Mm00450234.m1) expression were determined according to the manufacturer's protocol. […]
For orientation: In qPCR the cycle at which signal appears reflects the starting amount.

In assay [2] the test system is SREBP-1 mRNA in mouse macrophages (J774). The assay is described as follows: SREBP-1 gene expression (real-time PCR) in J774 macrophages. Type of assay: cell-based. The conditions noted are these: 6 hours. Here is the method: The mRNA regulation of those genes expressing ABCA1, ABCG1 and SR-BI is linked to nuclear proteins as LXR, SREBP1 and SREBP2. […] Gene expression was assayed using the protocols described in Sections 8.3.2 (RNA extraction); 8.3.4 (reverse transcription), and 8.3.5 (qPCR). SREBP-1, SREBP-2 and LXR gene expression levels were determined with Taqman probe (Mm01138344.m1, Mm01306292.m1, Mm00443451.m1 respectively) according to the manufacturer's protocol. The reference gene used is HPRT1 (Taqman probe: Mm00446968.m1).
J774 were seeded on 6 well plates (300,000 cells/well) and loaded with oxidized-LDL. […] Gene expression was assayed using the protocols described in Sections 8.3.2 (RNA extraction); 8.3.4 (reverse transcription), and 8.3.5 (qPCR). SR-BI gene (Taqman probe Mm00450234.m1), ABCG1 (Taqman probe Mm00437390.m1), SREBP1 (Taqman probe Mm01138344.m1) and ABCA1 (Taqman probe Mm00442646.m1) expression were determined according to the manufacturer's protocol. The reference gene used is HPRT1 (Taqman probe: Mm00446968.m1).
This study used β-cyclodextrin to examine the effect of β-cyclodextrin on LXR, SREBP1 and SREBP2 mRNA expression in J774 macrophages. J774 were seeded on 6 well plates (300,000 cells/well). β-cyclodextrin (0.03, 0.1, 0.3, 1, 3, 10 and 30 mM) was added for 6 hours on the macrophages and the RNA were extracted with the RiboPure™ kit according to the manufacturer's protocol. Gene expression was assayed using the protocols described in Sections 8.3.2 (RNA extraction); 8.3.4 (reverse transcription), and 8.3.5 (qPCR). SREBP-1, SREBP-2 and LXR gene expression were determined with Taqman probe (Mm01138344.m1, Mm01306292.m1, Mm00443451.m1 respectively) according to the manufacturer's protocol. The reference gene used is HPRT1 (Taqman probe: Mm00446968.m1).

The test system of assay [3] is ABCA1 protein in J774 macrophages. The assay is described as follows: ABCA1 protein level in J774 macrophages (SDS PAGE, anti-ABCA1). Type of assay: cell-based, mouse. The conditions noted are these: Study H; 250 μg/mL, 6 hours.
Assay [4] relates to diet-induced atherosclerosis in LDL receptor knock-out mice. The conditions noted are these: several infusions; cited from earlier work.

`OC[C@H]1O[C@@H]2O[C@H]3[C@H](O)[C@@H](O)[C@@H](O[C@H]4[C@H](O)[C@@H](O)[C@@H](O[C@H]5[C@H](O)[C@@H](O)[C@@H](O[C@H]6[C@H](O)[C@@H](O)[C@@H](O[C@H]7[C@H](O)[C@@H](O)[C@@H](O[C@H]8[C@H](O)[C@@H](O)[C@@H](O[C@H]1[C@H](O)[C@H]2O)O[C@@H]8CO)O[C@@H]7CO)O[C@@H]6CO)O[C@@H]5CO)O[C@@H]4CO)O[C@@H]3CO` [β-cyclodextrin, reference compound]: the “SR-BI mRNA level” value in assay [1] (Study O, 0.03 to 30 mM, 6 hours) is reported as “dose-dependent increase”. Moreover, the “SREBP-1 mRNA” value in assay [2] (Study P, 0.03 to 30 mM) is “dose-dependent decrease”.

With “CER-001: engineered recombinant human apolipoprotein A-I HDL with sphingomyelin and DPPG; protein-to-phospholipid ratio 1:2.7, 97% Sph and 3% DPPG”, in assay [1] (Study J, 24 hours treatment, 250 μg/mL), the “SR-BI mRNA level” value is recorded as “do not change the mRNA level of SR-BI”. Moreover, in assay [2] (Study D, 25, 250 and 1000 μg/mL), the SREBP-1 gene expression result was “affected SREBP-1 mRNA levels”. Moreover, the “concentration above which SREBP1 decrease and plateau observed” value in assay [2] (Study E) is recorded as “above 2.5 μg/mL”. For the same molecule, the ABCA1 protein level result in assay [3] is “significant decrease of ABCA1 protein level”. Besides, the “vascular inflammation and atherosclerosis” value in assay [4] is “reduce vascular inflammation and promote regression of diet-induced atherosclerosis”.
